Test results taken from US7022343B2, “Controlled release of anti-arrhythmic agents” (Genzyme Corporation, priority 2000, dated 2006).
Where a name gives a salt, the structure may show the parent alone.

Key:
[1] = FOCALSEAL-L; FIG. 2A / FIG. 2B
[2] = Tissue analysis of drug content under FOCALSEAL-S gels on porcine heart; assay type: in vivo; conditions: lung tissue adjacent to gel-treated sites; pig, seven days
[3] = Amiodarone concentration in dog right atrium under FOCALSEAL-S hydrogels (Example 9); assay type: in vivo; conditions: right atrial appendage, right ventricle, left atrial appendage, left atrial free wall, distal lung

change in pH and modulus as concentration is increased [1]: decrease in pH and modulus | concentration at 7 days [2]: ≤ 17000 ng/g | other tissue harvested showing a detectable level of amiodarone [3]: None
Compound: CCCCc1oc2ccccc2c1C(=O)c1cc(I)c(OCCN(CC)CC)c(I)c1 [amiodarone, Amiodarone hydrochloride]
